Literature values in paper PMC6311893, “Computational prediction of plasma protein binding of cyclic peptides from small molecule experimental data using sparse modeling techniques” (BMC Bioinformatics, 2018).
Structures can show the parent of a compound that is named as a salt.

Test system: plasma protein
Settings: fraction bound to plasma protein; small molecule dataset, sheet 1-SM (Set Dte = test, Dtr = training); ref Ingle et al.; cited from earlier work

| Molecule | PPB (fb) |
| --- | --- |
| C[C@H](N[C@@H](CCc1ccccc1)C(=O)O)C(=O)N1CCC[C@H]1C(=O)O [Enalaprilat] | 0.46 |
| O=C(O)c1cn(-c2ccc([N+](=O)[O-])cc2)c2cc(N3CCNCC3)c(F)cc2c1=O [7c(p-NO2)] | 0.3 |
| C[C@@H]1CCC[C@H](C)N1NC(=O)c1ccc(Cl)c(S(N)(=O)=O)c1 [clopamide] | 0.5 |
| COc1cccc(-n2cc(C(=O)O)c(=O)c3cc(F)c(N4CCN(C)CC4)cc32)c1 [5ba(m-OCH3__N-CH3)] | 0.54 |
| NCCC(O)(P(=O)(O)O)P(=O)(O)O [pamidronic acid] | 0.14 |
| O=C(O)c1cn(-c2ccc(O)cc2)c2cc(N3CCNCC3)c(F)cc2c1=O [8c(p-OH)] | 0.35 |
| C[C@@H](NCCCc1cccc(C(F)(F)F)c1)c1cccc2ccccc12 [Cinacalcet hydrochloride] | 0.95 |
| CCn1nc(C(=O)O)c(=O)c2cc3c(cc21)OCO3 [cinoxacin] | 0.64 |
| NC(Cc1cc(I)c(Oc2cc(I)c(O)c(I)c2)c(I)c1)C(=O)O (stereo not drawn) [thyroxine] | 0.99 |
| CCN(CC)CCNC(=O)c1cc(Cl)c(N)cc1OC [Metoclopramide] | 0.37 |
| O=C(O[C@@H]1C[C@@H]2C[C@H]3C[C@H](C1)N2CC3=O)c1c[nH]c2ccccc12 [dolasetron] | 0.7 |
| CNC(=O)c1c(I)c(NC(C)=O)c(I)c(C(=O)O)c1I [Iothalamic acid (Iothalamate)] | 0.02 |
| O=C(O)c1cn(-c2cccc([N+](=O)[O-])c2)c2cc(N3CCNCC3)c(F)cc2c1=O [7b(m-NO2)] | 0.66 |
| CC(=O)[C@H]1CC[C@H]2[C@@H]3CCC4=CC(=O)CC[C@]4(C)[C@H]3CC[C@]12C [progesterone] | 0.97 |
| CC[C@@]1(O)C(=O)OCc2c1cc1n(c2=O)Cc2cc3ccccc3nc2-1 [Camptothecin] | 0.98 |
| CCOC(=O)[C@H](CCc1ccccc1)N[C@H]1CCc2ccccc2N(CC(=O)O)C1=O [benazepril] | 0.96 |
| CN1CCC(=C2c3ccccc3CCc3cccnc32)CC1 [azatadine] | 0.1 |
| O=P(O)(O)C(Cl)(Cl)P(=O)(O)O [clodronic acid] | 0.36 |

Same assay, conditions: fraction bound to plasma protein; small molecule dataset, sheet 1-SM, Set Dtr; ref Ingle et al.; cited from earlier work

| Molecule | PPB (fb) |
| --- | --- |
| N[C@@H](Cc1ccc(O)c(O)c1)C(=O)O [Levodopa] | 0.12 |
| OC(Cn1cncn1)(Cn1cncn1)c1ccc(F)cc1F [Fluconazole] | 0.16 |
| COC(=O)CCc1ccc(OCC(O)CNC(C)C)cc1 (stereo not drawn) [Esmolol] | 0.48 |
| Cc1onc(-c2c(Cl)cccc2Cl)c1C(=O)N[C@@H]1C(=O)N2[C@@H]1SC(C)(C)[C@@H]2C(=O)O [Dicloxacillin] | 0.96 |
| CCCn1c(=O)[nH]c(=O)c2[nH]cnc21 [Enprofylline] | 0.45 |
| Clc1cccc(Cl)c1N=C1NCCN1 [Clonidine] | 0.34 |
| COc1cc(NS(C)(=O)=O)ccc1Nc1c2ccccc2nc2ccccc12 [Amsacrine] | 0.98 |
| NNc1nncc2ccccc12 [Hydralazine] | 0.87 |
| CN(C)CCCN1c2ccccc2Sc2ccccc21 [Promazine] | 0.89 |
| CN(C)CCc1c[nH]c2ccc(CS(=O)(=O)N3CCCC3)cc12 [Almotriptan] | 0.37 |
| NCCCC[C@H](N[C@@H](CCc1ccccc1)C(=O)O)C(=O)N1CCC[C@H]1C(=O)O [Lisinopril] | 0.05 |
| C[C@H]1[C@H](NC(=O)/C(=N\OC(C)(C)C(=O)O)c2csc(N)n2)C(=O)N1S(=O)(=O)O [Aztreonam] | 0.58 |
| CCCCCCCN(CC)CCCC(O)c1ccc(NS(C)(=O)=O)cc1 (stereo not drawn) [Ibutilide] | 0.4 |
| O=C(N[C@H](CO)[C@H](O)c1ccc([N+](=O)[O-])cc1)C(Cl)Cl [Chloramphenicol] | 0.61 |
| CC(=O)Nc1nnc(S(N)(=O)=O)s1 [Acetazolamide] | 0.92 |

Same assay, conditions: fraction bound to plasma protein; small molecule dataset, sheet 1-SM; ref Ingle et al.; cited from earlier work

| Molecule | PPB (fb) |
| --- | --- |
| Cc1cc(C(=O)NCCc2ccc(S(=O)(=O)NC(=O)NN3CCCCCC3)cc2)no1 [glisoxepide] | 0.93 |
| CCOc1c(C)nc2ccccc2c1C(=O)NC1C(=O)N2C1SC(C)(C)C2C(=O)O (stereo not drawn) [penicillin79] | 0.74 |
| CC(C(=O)O)c1cccc(Oc2ccccc2)c1 (stereo not drawn) [fenoprofen] | 0.99 |
| CC(Oc1ccc(F)cc1)C(=O)NC1C(=O)N2C1SC(C)(C)C2C(=O)O (stereo not drawn) [penicillin62] | 0.8 |
| CC1CCN(CCCC(=O)c2ccc(F)cc2)CC1 [melperone] | 0.5 |
| C[C@@H]1C[C@H]2[C@@H]3C[C@H](F)C4=CC(=O)C=C[C@]4(C)[C@H]3[C@@H](O)C[C@]2(C)[C@H]1C(=O)CO [fluocortolone] | 0.9 |
| C#CCCCC(=O)c1cc(C(C)(C)C)c(O)c(C(C)(C)C)c1 [tebufelone] | 0.99 |
| CC(/C=C1\SC(=S)N(CC(=O)O)C1=O)=C\c1ccccc1 [Epalrestat] | 0.9 |
| CC1(C)SC2C(NC(=O)c3ccccc3)C(=O)N2C1C(=O)O (stereo not drawn) [penicillin14] | 0.87 |
| CCCN1C[C@H](CSC)C[C@@H]2c3cccc4[nH]cc(c34)C[C@H]21 [pergolide] | 0.9 |
| O=C(O)C(=O)O [oxalic acid] | 0 |
| Cc1cccc(Nc2ccncc2S(=O)(=O)NC(=O)NC(C)C)c1 [Torasemide] | 0.99 |
| OCc1cc(C(O)CNCCCCCCOCCCCc2ccccc2)ccc1O (stereo not drawn) [salmeterol] | 0.96 |
| CCN(CC)CCOC(=O)C(Cc1cccc2ccccc12)CC1CCCO1 (stereo not drawn) [nafronyl] | 0.9 |
| O=C(O)/C=C/c1ccc(O)cc1 [p-coumaric acid] | 0.65 |
| CN1C(=O)CC(C)(c2ccccc2)C1=O (stereo not drawn) [mesuximide] | 0 |
| CN[C@@H]1[C@@H](O)[C@@H](O[C@@H]2[C@@H](O)[C@H](O[C@H]3OC(CN)=CC[C@H]3N)[C@@H](N)C[C@H]2N)OC[C@]1(C)O [Sisomicin] | 0.85 |
| CC1(C)SC2C(NC(=O)C(Cl)c3ccccc3)C(=O)N2C1C(=O)O (stereo not drawn) [penicillin22] | 0.78 |

Same assay, conditions: plasma; cited from earlier work

| Molecule | PPB (fb) |
| --- | --- |
| CCOC(=O)C1(c2ccccc2)CCN(C)CC1 [Meperidine] | 0.58 |
| polythiazide | 0.85 |
| COC(=O)C(c1ccccc1)C1CCCCN1 (stereo not drawn) [Methylphenidate] | 0.18 |
| N#CC(CCN1CCC(C(N)=O)(N2CCCCC2)CC1)(c1ccccc1)c1ccccc1 [Piritramide] | 0.94 |
| CCC1(CC)C(=O)NCC(C)C1=O (stereo not drawn) [methyprylon] | 0.6 |
| CN1CC[C@]23c4c5ccc(OCCN6CCOCC6)c4O[C@H]2[C@@H](O)C=C[C@H]3[C@H]1C5 [pholcodine] | 0.24 |
| CN1C(=O)C(O)N=C(c2ccccc2Cl)c2cc(Cl)ccc21 (stereo not drawn) [Lormetazepam] | 0.86 |
| C[C@]12COC(=O)C[C@@H]1CC[C@@H]1[C@@H]2CC[C@@]2(C)[C@H]1CC[C@]2(C)O [oxandrolone] | 0.95 |
| Tetracycline | 0.36 |
| COc1cc(CCN)cc(OC)c1OC [mescaline] | 0.15 |
| C[N+](C)(C)CCOC(=O)CCC(=O)OCC[N+](C)(C)C [succinylcholine] | 0.3 |
| Cc1nnc2n1-c1ccc(Cl)cc1C(c1ccccc1)=NC2 [Alprazolam] | 0.72 |
| O=C1Nc2ccc(Cl)cc2C(c2ccccc2Cl)=NC1O (stereo not drawn) [Lorazepam] | 0.91 |
| CCCC(C)(COC(N)=O)COC(N)=O [Meprobamate] | 0.1 |
| Tigecycline | 0.8 |
